Patent US20230099441A1, “HETEROCYCLIC COMPOUND, APPLICATION THEREOF, AND COMPOSITION CONTAINING SAME” (GenEros Biopharma Ltd., priority 2019, published 2023)

Assays:
[1] = Body weight of animals in the mouse collagen-induced arthritis model; type: in vivo; details: oral, X8 1 mg/kg once a day; for body weight of animals, Mean/g: mean of group, Methotrexate 0.25 mg/kg once a week, Tofacitinib 5 mg/kg once a day
Description: (§1) Sixty male DBA/1J mice (9-10 weeks old, H-2q haplotype) were acclimatized in a standard animal room for one week and then randomly divided into 5 groups. Except for the healthy control group, the rest were inoculated with collagen antigen injection, and then received oral treatment with different compounds. The brief procedure was to mix bovine type II collagen (purchased from Chondrex, 20021) with an equal volume of Freund's complete adjuvant (purchased from Sigma, F5881), the concentration was 4 mg/ml, and it was treated with a homogenizer at a speed of 20,000 revolutions/min for 5-10 minutes. A needle was inserted between the left side of the dorsal caudal artery and the lateral vein of the mouse, and 50 microliters of modeling agent was injected subcutaneously. 21 days after the first injection, another injection was injected between the right side of the dorsal tail artery and the lateral vein of the mouse. After the first injection, oral administration was started. The drug was formulated with […] PEG300, and it was prepared for immediate use. […] The total score was between 0-12 points, and the swelling of the foot after vaccination was not calculated.

[2] = tested on: mouse collagen-induced arthritis model; experiment: Therapeutic efficacy in a mouse collagen-induced arthritis model (clinical score); type: in vivo; details: mean of group, total score 0-12, oral, Methotrexate 0.25 mg/kg once a week, Tofacitinib 5 mg/kg once a day, X8 1 mg/kg once a day
Description: Example of Effect 2: Evaluation of the Therapeutic Efficacy of X8 Compound in a Mouse Collagen-Induced Arthritis Model
as §1

[3] = tested on: STAT5 Y694 phosphorylation; experiment: Protein electrophoresis and blotting of STAT5 Y694 phosphorylation in Jurkat cells stimulated with human interferon beta; type: cell-based; details: for Example of Effect 1: Inhibiting Ability (Protein Electrophoresis and Blotting): observed pSTAT5 bands at 10 μM and 100 μM; for Inhibiting Ratio (0% for vehicle control): 1 hour pretreatment, 20 ng/ml human interferon beta 30 minutes, pSTAT5/GAPDH
Procedure, shortened: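 Serum-free Jurkat cells pretreated with compound 1 h, then stimulated with 20 ng/ml human interferon beta for 30 min at 37° C. pSTAT5 measured by western blot with chemiluminescence, normalized to GAPDH and expressed as percent of DMSO control.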

[4] = tested on: STAT5 Y694 phosphorylation; experiment: HTRF experiment: STAT5 Y694 phosphorylation in Hela cells stimulated with human interferon beta; type: cell-based; details: 2 hours pretreatment, 10 nM human interferon beta 30 minutes

C[C@@H]1CCN(C(=O)CC#N)C[C@@H]1N(C)c1ncnc2[nH]ccc12 [Tofacitinib, tofacitinib]
body weight of animals, Mean/g ([1]; day 0): 21.94 g | body weight of animals, Mean/g ([1]; day 4): 22.41 g | body weight of animals, Mean/g ([1]; day 7): 22.76 g | body weight of animals, Mean/g ([1]; day 11): 22.79 g | body weight of animals, Mean/g ([1]; day 14): 22.55 g | body weight of animals, Mean/g ([1]; day 18): 22.87 g | body weight of animals, Mean/g ([1]; day 20): 23.20 g | body weight of animals, Mean/g ([1]; day 25): 22.48 g | body weight of animals, Mean/g ([1]; day 28): 22.46 g | body weight of animals, Mean/g ([1]; day 31): 22.37 g | body weight of animals, Mean/g ([1]; day 33): 22.65 g | body weight of animals, Mean/g ([1]; day 35): 22.43 g | body weight of animals, Mean/g ([1]; day 38): 22.30 g | body weight of animals, Mean/g ([1]; day 40): 20.90 g | body weight of animals, Mean/g ([1]; day 42): 22.13 g | body weight of animals, Mean/g ([1]; day 45): 22.30 g | effect on body weight of animals (in words) ([1]; whole experiment, days 0-45, methotrexate 0.25 mg/kg once a week, tofacitinib 5 mg/kg once a day): weight loss in the late stage of the experiment | clinical score of arthritis, Mean (the larger the value, the more severe the disease) ([2]; day 0): 0.00 | clinical score of arthritis, Mean (the larger the value, the more severe the disease) ([2]; day 21): 0.00 | clinical score of arthritis, Mean (the larger the value, the more severe the disease) ([2]; day 25): 0.00 | clinical score of arthritis, Mean (the larger the value, the more severe the disease) ([2]; day 28): 0.81 | clinical score of arthritis, Mean (the larger the value, the more severe the disease) ([2]; day 31): 1.83 | clinical score of arthritis, Mean (the larger the value, the more severe the disease) ([2]; day 33): 2.19 | clinical score of arthritis, Mean (the larger the value, the more severe the disease) ([2]; day 35): 2.52 | clinical score of arthritis, Mean (the larger the value, the more severe the disease) ([2]; day 38): 2.77 | clinical score of arthritis, Mean (the larger the value, the more severe the disease) ([2]; day 40): 2.62 | clinical score of arthritis, Mean (the larger the value, the more severe the disease) ([2]; day 42): 3.14 | clinical score of arthritis, Mean (the larger the value, the more severe the disease) ([2]; day 45): 2.90

O=C(Cc1ccc(Br)cc1)N1CCC(n2c(=O)[nH]c3cccc(C(F)(F)F)c32)CC1 [GEN1-157, 1-(1-(2-(4-bromophenyl)acetyl)piperidin-4-yl)-7-(trifluoromethyl)-1H-benzo[d]imidazol-2(3H)-one]
Example of Effect 1: Inhibiting Ability (Protein Electrophoresis and Blotting) [3]: + | Example of Effect 3: Inhibiting Ratio@10 μM (HTRF Experiment) [4]: 28.83%

O=C(Cc1ccc(C(F)(F)F)cc1)N1CCC(n2c(=O)[nH]c3c(C(F)(F)F)cccc32)CC1 [GEN1-001, 4-(trifluoromethyl)-1-(1-(2-(4-(trifluoromethyl)phenyl)acetyl)piperidin-4-yl)-1H-benzo[d]imidazole-2(3H)-one]
Inhibiting Ratio (0% for vehicle control) ([3]; 1 μM): 11.0% | Inhibiting Ratio (0% for vehicle control) ([3]; 10 μM): 29.2% | Inhibiting Ratio (0% for vehicle control) ([3]; 100 μM): 96.8% | Example of Effect 1: Inhibiting Ability (Protein Electrophoresis and Blotting) [3]: + | Example of Effect 3: Inhibiting Ratio@10 μM (HTRF Experiment) [4]: 3.75%

O=C(Cc1ccc(C(F)(F)F)cc1)N1CCC(Cn2c(=O)[nH]c3cccc(C(F)(F)F)c32)CC1 [GEN1-174, 7-(trifluoromethyl)-1-((1-(2-(4-(trifluoromethyl)phenyl)acetyl)piperidin-4-yl)methyl)-1H-benzo[d]imidazol-2(3H)-one]
Example of Effect 1: Inhibiting Ability (Protein Electrophoresis and Blotting) [3]: + | Example of Effect 3: Inhibiting Ratio@10 μM (HTRF Experiment) [4]: 39.65%

O=C(Cc1ccc(C(F)(F)F)cc1)N1CCC2(CC1)C(=O)Nc1ccccc12 [GEN1-167, 1′-(2-(4-(trifluoromethyl)phenyl)acetyl)spiro[indoline-3,4′-piperidine]-2-one]
Example of Effect 1: Inhibiting Ability (Protein Electrophoresis and Blotting) [3]: + | Example of Effect 3: Inhibiting Ratio@10 μM (HTRF Experiment) [4]: 15.57%

O=C(Cc1ccc(C(F)(F)F)cc1)N1CCC(n2c(=O)[nH]c3cccc(C(F)(F)F)c32)CC1 [GEN1-013, 7-(trifluoromethyl)-1-(1-(2-(4-(trifluoromethyl)phenyl)acetyl)piperidin-4-yl)-1H-benzo[d]imidazole-2(3H)-one]
Inhibiting Ratio (0% for vehicle control) ([3]; 1 μM): 12.4% | Inhibiting Ratio (0% for vehicle control) ([3]; 10 μM): 62.6% | Inhibiting Ratio (0% for vehicle control) ([3]; 100 μM): 97.0% | Example of Effect 1: Inhibiting Ability (Protein Electrophoresis and Blotting) [3]: + | Example of Effect 3: Inhibiting Ratio@10 μM (HTRF Experiment) [4]: 20.29%

CC(C)(C)c1ccc(CC(=O)N2CCC(n3c(=O)[nH]c4ccccc43)CC2)cc1 [GEN1-031, 1-(1-(2-(4-(tert-butyl)phenyl)acetyl)piperidin-4-yl)-1H-benzo[d]imidazole-2(3H)-one]
Inhibiting Ratio (0% for vehicle control) ([3]; 1 μM): 19.7% | Inhibiting Ratio (0% for vehicle control) ([3]; 10 μM): 38.1% | Inhibiting Ratio (0% for vehicle control) ([3]; 100 μM): 98.7% | Example of Effect 1: Inhibiting Ability (Protein Electrophoresis and Blotting) [3]: + | Example of Effect 3: Inhibiting Ratio@10 μM (HTRF Experiment) [4]: 0.13%

O=C(Cc1ccc2c(c1)OCO2)N1CCC(n2c(=O)[nH]c3cccc(C(F)(F)F)c32)CC1 [GEN1-116, 1-(1-(2-(benzo[d][1,3]dioxol-5-yl)acetyl)piperidin-4-yl)-7-(trifluoromethyl)-1,3-dihydro-2H-benzo[d]imidazol-2-one]
Example of Effect 1: Inhibiting Ability (Protein Electrophoresis and Blotting) [3]: + | Example of Effect 3: Inhibiting Ratio@10 μM (HTRF Experiment) [4]: 35.01%

CN(C)c1ccc(CC(=O)N2CCC(n3c(=O)[nH]c4cccc(C(F)(F)F)c43)CC2)cc1 [GEN1-118, 1-(1-(2-(4-(dimethylamino)phenyl)acetyl)piperidin-4-yl)-7-(trifluoromethyl)-1,3-dihydro-2H-benzo[d]imidazol-2-one]
Example of Effect 1: Inhibiting Ability (Protein Electrophoresis and Blotting) [3]: + | Example of Effect 3: Inhibiting Ratio@10 μM (HTRF Experiment) [4]: 27.57%

O=c1[nH]c2ccccc2n1C1CCN(C(=S)Cc2ccc(C(F)(F)F)cc2)CC1 [GEN1-128]
Example of Effect 1: Inhibiting Ability (Protein Electrophoresis and Blotting) [3]: + | Example of Effect 3: Inhibiting Ratio@10 μM (HTRF Experiment) [4]: 13.88%

O=C(Cc1ccc(C(F)(F)F)cc1)N1CCC(N2Cc3ccccc3NC2=O)CC1 [GEN1-161, 3-(1-(2-(4-(trifluoromethyl)phenyl)acetyl)piperidin-4-yl)-3,4-dihydroquinazolin-2(1H)-one]
Example of Effect 1: Inhibiting Ability (Protein Electrophoresis and Blotting) [3]: + | Example of Effect 3: Inhibiting Ratio@10 μM (HTRF Experiment) [4]: 1.38%

O=C(Cc1ccc(C(F)(F)F)cc1)N1CCC(n2c(=O)[nH]c3cccc([N+](=O)[O-])c32)CC1 [GEN1-091, 7-nitro-1-(1-(2-(4-(trifluoromethyl)phenyl)acetyl)piperidin-4-yl)-1H-benzo[d]imidazol-2(3H)-one]
Example of Effect 1: Inhibiting Ability (Protein Electrophoresis and Blotting) [3]: + | Example of Effect 3: Inhibiting Ratio@10 μM (HTRF Experiment) [4]: 17.60%
